From US20230339896A1, “HPK1 INHIBITORS AND USES THEREOF” (QILU REGOR THERAPEUTICS INC., priority 2020, published 2023)

System: MDCK
Test: MDCK permeability assay
Assay type: in vitro ADME
Details: pH 7.4
Description: This assay is for generating screening data only, and to estimate the intestinal absorption potential of drug candidates. The study will be conducted in accordance with International Bioethical Standards “World MedicalAssociation Declaration of Helsinki.
Cell line: • ▪ MDCK (ATCC), or MDCK MDR1 (NKI).
Prepare donor buffer: • For A-to-B direction: • ✔ HBSS buffer with 0.3% DMSO and 5 µM Lucifer Yellow (LY): add 150 µL DMSO and 125 µL LY (2 mM) into 50 mL HBSS buffer (pH 7.4). • ✔ HBSS buffer with 0.1% DMSO and 5 µM Lucifer Yellow (LY): add 50 µL DMSO and 125 µL LY (2 mM) into 50 mL HBSS buffer (pH 7.4). • ✔ HBSS buffer with 5 µM Lucifer Yellow (LY): add 125 µL LY (2 mM) into 50 mL HBSS buffer (pH 7.4). • For B-to-A direction: • ✔ HBSS buffer with 0.3% DMSO: add 150 µL DMSO into 50 mL HBSS buffer (pH 7.4). • ✔ HBSS buffer with 0.1% DMSO: add 50 µL DMSO into 50 mL HBSS buffer (pH 7.4). • ✔ HBSS buffer without DMSO. • Prepare receiver buffer: • For A-to-B direction: Prepare HBSS buffer with 0.4% DMSO: add 200 µL DMSO into 50 mL HBSS buffer (pH 7.4) • For B-to-A direction: Prepare HBSS buffer with 0.4% DMSO and 5 µM LY: add 200 uL DMSO and 125 µL LY (2 mM) into 50 mL HBSS buffer (pH 7.4) • Controls: • Prepare 10 mM stock concentrations of compound in DMSO and Lucifer Yellow in assay buffer using the following formula: • (Actual Weight/Molecular Weight)/mL solvent =10 mM • Reference compound: Erythromycin, Metoprolol, Atenolol
MDCK assay plates are seeded 3-4 days prior to running the assay. 24-well plates are seeded at a cell density of 0.88 × 10^5/well in a 400 µL apical chamber volume (2.2×10^5 /mL) with a 25 mL volume of growth medium to the 24-well basal chamber. Assay plates are generally provided with a growth medium change 24 hours prior to the assay.
MDCK assay plates are rinsed with HBSS+ buffer prior to running the assay. After rinsing, fresh HBSS+ is added to the assay plate in a 400 µL apical chamber volume and a 0.8 mL HBSS+ basal chamber volume. Measure the electrical resistance across the monolayer using the Millicell ERS system ohm meter. (The cells will be used if TEER is higher than 100 ohm*cm^2).
Preparation of the cell plates: • Remove the buffer from the apical side and basolateral side. Add 600 µL of donor solution (for A-to-B) or 500 µL of receiver solution (for B-to-A) to the apical wells based on plate map. • A fresh basolateral plate is prepared by adding 800 µL of receiver solution (for A-to-B) or 900 µL of donor solution (B-to-A) to the well of a new 24-well plate. • Put the apical plate and basolateral plate into 37° C. incubator.
Preparation of analytical plate: • After 5 min, transfer 100 µL of samples from all donors (for both A-to-B and B-to-A) into appropriate wells of a sample plate for D0. And transfer 100 µL of samples from all apical chambers (the donor of A-to-B and receiver of B-to-A) into appropriate wells of a microplate for Lucifer Yellow D0 (D0 LY) • Lay the apical plate to the basolateral plate to start transport process. • At 90 min, separate the apical and basolateral plates and transfer 100 µL of samples from all donors (for both A-to-B and B-to-A) into appropriate wells of a new sample plate for D90, and transfer 200 µL of samples from all receivers into appropriate wells of a sample plate for R90. Transfer 100 µL of samples from all basolateral chambers (receiver of A-to-B and donor of B-to-A) into appropriate wells of a new microplate for Lucifer Yellow R90 (R90 LY). • Determine LY permeability by reading D0 LY and R90 LY at an excitation wavelength of 485 nm and an emission wavelength of 535 nm using a fluorescent plate reader. • Sample preparation: • For receiver solution: 60 µL of sample + 60 µL ACN with IS (200 ng/mL Osalmid) • For donor solution: 6 µL of sample + 54 µL 0.4% DMSO/HBSS + 60 µL ACN with IS (200 ng/mL Osalmid) […]

MDCK Permeability (A-B) (×10-6 cm/s) (A-B): 11.9 ×10-6 cm/s
MDCK Permeability (B-A) (×10-6 cm/s) (B-A): 52.3 ×10-6 cm/s
SMILES: CN1CCc2cc(F)c(Nc3ncc(Cl)c(N4C[C@](C)(CC(=O)O)c5ccccc54)n3)cc2C1 (single isomer, unassigned) [Example 5, (R)-2-[1-[5-chloro-2-[(6-fluoro-2-methyl-3,4-dihydro-1H-isoquinolin-7-yl)amino]pyrimidin-4-yl]-3-methyl-indolin-3-yl]acetic acid or (S)-2-[1-[5-chloro-2-[(6-fluoro-2-methyl-3,4-dihydro-1H-isoquinolin-7-yl)amino]pyrimidin-4-yl]-3-methyl-indolin-3-yl]acetic acid]
